Measurements reported in patent publication US12421271B2, “Solid forms of (2S,3S,4S,5R,6S)-3,4,5-trihydroxy-6-(((4AR, 10AR)-7-hydroxy-1-propyl-1,2,3,4,4A,5,10,10A-octahydrobenzo[g]quinolin-6-yl)oxy)tetrahydro-2H-pyran-2-carboxylic acid” (H. Lundbeck A/S, priority 2019, dated 2025).
Structures can show the parent of a compound that is named as a salt.

Key:
[1] = PK experiments in Wistar rats, plasma compound (I) after oral dosing of prodrugs; assay type: in vivo, rat; conditions: FIG. 1, doses equal to 287 μg/kg of compound (I)
Experimental: Plasma was placed on water-ice following collection. Final storage at approximately −70° C.
Mobile phase B: Acetonitrile. […] Flow rate 0.5 mL/min.
The rats had unrestricted access to the diet.
Mobile phase B: Acetonitrile+0.2% formic acid. […] Flow rate 0.3 mL/min.
Dosing and blood sampling for compound (Ic): Han Wistar rats were supplied by Envigo, UK. […] The rats received a standard laboratory diet Teklad 2014C. The rats had unrestricted access to the diet.

[2] = Stability studies of solid forms in sealed polyethylene bags (appearance, LC-UV, Karl Fischer water, XRPD); assay type: physicochemical; conditions: for Overall outcome of stability testing, in words: 25° C./60% RH and 40° C./75% RH; for Physical form: XRPD
Experimental: The substances were packed individually in sealed polyethylene bags, with a carton box as a secondary packaging material. During stability the different batches were tested for visual appearance, assay (anhydrous i.e. calculated as water free compound), impurities and water content. In addition, XRPD was been performed as described in Example 3 at selected time points.
LC-UV was run on Agilent HPLC consisting of Agilent 1200 HPLC or equivalent including autosampler and DAD detector (operating at 278 nm).
LC-conditions: The column was Synergi Polar-RP 4 μm; 4.6×150 mm operating at 40° C. with 1.0 ml/min of a binary gradient consisting of water/acetonitrile+[…] (90:10) (A) and water/acetonitrile+[…] (35:65) (B).
(§1) The amount of impurities was determined as % area of the peak of impurity relative to the area of the main peak.
The water content was determined by coulometric Karl Fischer titration according to the European Pharmacopoeia, chapter 2.5.32 (Metrohm 874 Oven Sample Processor and Metrohm 851 KF Coulometer). The water content was evaporated by heating samples to 150° C. and the water vapor was transferred by nitrogen to the titration chamber where it was titrated to endpoint using Hydranal Coulomat AG Oven (article number 34739) titration reagent.

[3] = Stress stability, open dishes in the dark, LC-UV impurities; assay type: physicochemical; conditions: open dish, % area by LC-UV
Experimental: For the stress stability studies, the substances were stored in open dishes in the dark at 40° C./75% RH, 60° C. and 60° C./80% RH.
as §1
The stress stability testing was performed as described above, and the amount of degradation products were determined based on the LC-UV method described above.

[4] = Grinding, pressure and milling followed by XRPD; assay type: physicochemical; conditions: for Crystallinity by XRPD after pressure: DH1: 300 PSI for 5 minutes, K^+ salt: IR-press for 5 minutes; for Crystallinity by XRPD after grinding: grinded by hand with mortar and pestle; for Crystallinity by XRPD after subsequent storage of treated sample: 95% RH for 1 week
Experimental: A sample of the heptahydrate was grinded by hand using mortar and pestle for 2 minutes, and subsequently analyzed by XRPD. […] The samples were analysed by XRPD after the treatment. Subsequently, the samples were placed at 95% RH for 1 week and reanalysed by XRPD.

[5] = Dynamic vapor sorption (DVS); assay type: physicochemical; conditions: for Hygroscopicity / behaviour towards humidity (DVS), in words: DH1: 5-80% RH, HH: 20-95% RH, K^+ salt: two cycles
Experimental: Dynamic vapor sorption (DVS) was further used to evaluate selected solid forms. Hygroscopicity and dehydration behavior can be investigated by DVS analysis. DVS experiments were performed using a DVS Advantage 01 instrument from Surface Measurement Systems. Samples of 4-10 mg of the solid forms were used for the analysis. […]

rat locomotor activity = assay: Rat locomotor activity (hyperactivity) assay, open field, with PK/PD; assay type: in vivo
Experimental: Mass spectrometer (UPCLC-MS/MS) Waters Acquity I-Class-Waters Xevo TQ-S. Analytical column Acquity HSS T3 C18 50×2.1 mm, 1.8 μm. Mobile phase A: 10 mM NH4—Formate 0.2% formic acid:Acetonitril (95:5). Mobile phase B: 10 mM NH4—Formate 0.2% formic acid:Acetonitril (5:95). Gradient run from 95/5% to 5/95% in 2.40 minutes. Flow rate 0.3 mL/min. MRM detection of test items and the added analytical standards.
Animals for the study were as described in Example 10. Additionally, rats were administered a single dose of apomorphine subcutaneously.
In total, 206 male CD rats (Charles River, Germany) weighing 200-250 grams (165-190 grams upon arrival) were used in the study. Animals were housed at a standard temperature (22±1° C.) and in a light-controlled environment (lights on from 7 am to […]) with ad libitum access to food and water. The experiment described below was performed in accordance with the standard operating procedures of Charles River Discovery Research Services Finland Ltd. and in accordance with the national Animal Experiment Board of Finland (Eläinkoelautakunta, ELLA) authority on animal testing.
The test device is a square Plexiglass-arena (measuring 40×40×40 cm), in which the movement paths of the rats are recorded by an activity monitor (Med. Associates Inc.). Before the test period is initiated, rats are habituated to their test cage for 60 minutes. Upon completion of habituation, animals were treated with either compound or vehicle and placed back into the open field apparatus. The main test parameter measured is ambulatory distance (recorded in 5-minute segments). Overall time of measurement after receiving initial treatment was 360 minutes. Total follow up period in the study was 420 min, including 60 min of habituation.

| SMILES | Water content, % ([2]; 25° C./60% RH, 6 months) [%] | Physical form ([2]; 25° C./60% RH, 6 months) | Water content, % ([2]; 25° C./60% RH, Initial) [%] | Physical form ([2]; 25° C./60% RH, Initial) | Water content, % ([2]; 40° C./75% RH, 6 months) [%] | Physical form ([2]; 40° C./75% RH, 6 months) | Water content, % ([2]; 40° C./75% RH, Initial) [%] | Physical form ([2]; 40° C./75% RH, Initial) | Crystallinity by XRPD after pressure [4] | Crystallinity by XRPD after grinding [4] | Hygroscopicity / behaviour towards humidity (DVS), in words [5] | Water content, % ([2]; 25° C./60% RH, 3 months) [%] | Water content, % ([2]; 25° C./60% RH, 9 months) [%] | Physical form ([2]; 25° C./60% RH, 9 months) | Water content, % ([2]; 25° C./60% RH, 18 months) [%] | Water content, % ([2]; 40° C./75% RH, 3 months) [%] | further results |
| --- | --- | --- | --- | --- | --- | --- | --- | --- | --- | --- | --- | --- | --- | --- | --- | --- | --- |
| CCCN1CCC[C@@H]2Cc3c(ccc4c3OCO4)C[C@H]21 [Compound (Ib)] | – | – | – | – | – | – | – | – | – | – | – | – | – | – | – | – | Plasma profile of compound (I) after oral dosing, in words [1]: early and high peak concentrations |
| CCCN1CCC[C@@H]2Cc3c(ccc(O)c3O[C@@H]3O[C@H](C(=O)O)[C@@H](O)[C@H](O)[C@H]3O)C[C@H]21 [DH1, (2S,3S,4S,5R,6S)-3,4,5-trihydroxy-6-(((4aR,10aR)-7-hydroxy-1-propyl-1,2,3,4,4a,5,10,10a-octahydrobenzo[g]quinolin-6-yl)oxy)tetrahydro-2H-pyran-2-carboxylic acid] | 7.6 | DH1 | 7.6 | DH1 | 7.5 | DH1 | 7.6 | DH1 | did not show sign of decreased crystallinity | did not show sign of decreased crystallinity | non-hygroscopic | – | – | – | – | – | Overall outcome of stability testing, in words ([2]; listed as dihydrate): no changes in appearance, water content or physical form (XRPD); Water content, % ([2]; 25° C./60% RH, 4 months): 7.6%; Physical form ([2]; 25° C./60% RH, 4 months): DH1; Water content, % ([2]; 25° C./60% RH, 10 months): 7.4%; Water content, % ([2]; 40° C./75% RH, 4 months): 7.4%; Physical form ([2]; 40° C./75% RH, 4 months): DH1; Total sum of impurities after 6 months storage ([3]; 40° C./75% RH, listed as Dihydrate): 0.05%; Total sum of impurities after 6 months storage ([3]; 60° C., listed as Dihydrate): 1.0%; Total sum of impurities after 6 months storage ([3]; 60° C./80% RH, listed as Dihydrate): 0.05%; Crystallinity by XRPD after milling ([4]; milled vs un-milled material): no apparent change in crystallinity; Water absorbed or desorbed (DVS) ([5]; humidity range 5-90% RH): Less than 0.1% |
| CCCN1CCC[C@@H]2Cc3c(ccc(O)c3O[C@@H]3O[C@H](C(=O)O)[C@@H](O)[C@H](O)[C@H]3O)C[C@H]21 [HH, (2S,3S,4S,5R,6S)-3,4,5-trihydroxy-6-(((4aR,10aR)-7-hydroxy-1-propyl-1,2,3,4,4a,5,10,10a-octahydrobenzo[g]quinolin-6-yl)oxy)tetrahydro-2H-pyran-2-carboxylic acid] | 20.0 | – | 21.6 | – | 7.6 | – | 21.6 | – | – | – | absorbs and desorbs water at humidity between 20% RH and 95% RH without changing the crystal form | 22.3 | 21.6 | Form C | 20.9 | 7.6 | Overall outcome of stability testing, in words [2]: Changes in visual appearance, water content and physical form (XRPD) were seen; Water content, % ([2]; 25° C./60% RH, 12 months): 15.0%; Physical form ([2]; 40° C./75% RH, 3 months): DH1; Total sum of impurities after 6 months storage ([3]; 40° C./75% RH, listed as Heptahydrate): <0.05%; Total sum of impurities after 6 months storage ([3]; 60° C., listed as Heptahydrate): 4.3%; Total sum of impurities after 6 months storage ([3]; 60° C./80% RH, listed as Heptahydrate): <0.05%; Crystallinity by XRPD after subsequent storage of treated sample ([4]; listed as heptahydrate): regained crystallinity after storage; Crystallinity by XRPD after grinding ([4]; listed as heptahydrate): reflections became a bit broader and an amorphous halo became visible; Behaviour at low humidity (DVS), in words ([5]; humidity below 20%): changes into other less hydrated forms |
| CCCN1CCC[C@@H]2Cc3c(ccc(O)c3O[C@@H]3O[C@H](C(=O)O)[C@@H](O)[C@H](O)[C@H]3O)C[C@H]21 [K^+ salt, (2S,3S,4S,5R,6S)-3,4,5-trihydroxy-6-(((4aR,10aR)-7-hydroxy-1-propyl-1,2,3,4,4a,5,10,10a-octahydrobenzo[g]quinolin-6-yl)oxy)tetrahydro-2H-pyran-2-carboxylic acid] | 0.17 | Alfa form | 0.11 | Alfa form | 0.25 | Alfa form | 0.11 | Alfa form | some broadening of the XRPD reflections | severe broadening of the XRPD reflections | stable towards change in humidity | 0.22 | <0.10 | Alfa form | 0.23 | 0.38 | Overall outcome of stability testing, in words ([2]; listed as potassium salt): remained in the same physical form; Water content, % ([2]; 25° C./60% RH, 13 months): <0.10%; Physical form ([2]; 25° C./60% RH, 13 months): Alfa form; Physical form ([2]; 25° C./60% RH, 18 months): Alfa form; Total sum of impurities after 6 months storage ([3]; 40° C./75% RH, listed as Potassium salt): 0.10%; Total sum of impurities after 6 months storage ([3]; 60° C., listed as Potassium salt): 0.10%; Total sum of impurities after 6 months storage ([3]; 60° C./80% RH, listed as Potassium salt): 1.0%; Crystallinity by XRPD after subsequent storage of treated sample [4]: regained crystallinity after storage at high humidity; Weight change (DVS) ([5]; at 80% RH): up to 0.6%; Further weight change (DVS) ([5]; at 90% RH): 1% |
| CN1CCc2cccc3c2[C@H]1Cc1ccc(O)c(O)c1-3 [apomorphine, reference compound] | – | – | – | – | – | – | – | – | – | – | – | – | – | – | – | – | Relationship of behavioral effect and plasma concentration (rat locomotor activity; (Id) 100 μg/kg p.o. (FIG. 4), apomorphine 3 mg/kg s.c. (FIG. 5)): correlation between plasma concentrations of apomorphine and hyperactive behavior; Start of locomotor effect post-administration (rat locomotor activity; (Id) 10 to 300 μg/kg p.o., apomorphine 3 mg/kg s.c., pramipexole 0.3 mg/kg s.c., FIG. 2): immediate; Time post administration at which hyperactivity is gone (rat locomotor activity; apomorphine 3 mg/kg s.c., 150-minute time point): 1.5 h |
